We go through 15 compounds from ChEMBL document CHEMBL1154515, “Gamma-pyrone natural products--a privileged compound class provided by nature” (Bioorg Med Chem, 2009).

The term IC50 denotes the point on the concentration scale where inhibition reaches its midpoint. Low values mean higher potency, high ones lower potency. By EC50 is commonly meant the midpoint of the concentration-response curve. What is called MIC is the least concentration at which growth counts as inhibited. A higher MIC goes with a need for much substance. For orientation: LC50 means the concentration lethal to half of the exposed cells or organisms. Read a low LC50 as greater toxicity. One may read the LD50 as the dose expected to kill half of the subjects tested. A low value points to greater toxicity.

In series [1] the target is T1, Potassium voltage-gated channel subfamily A member 3 (Homo sapiens, UniProt P22001). As to the kind of experiment: Inhibition of voltage-gated Kv1.3 potassium channel expressed in CHO cells by 86Rb efflux experiment. Format: cell-based.
T1 sequence (P22001 whole entry): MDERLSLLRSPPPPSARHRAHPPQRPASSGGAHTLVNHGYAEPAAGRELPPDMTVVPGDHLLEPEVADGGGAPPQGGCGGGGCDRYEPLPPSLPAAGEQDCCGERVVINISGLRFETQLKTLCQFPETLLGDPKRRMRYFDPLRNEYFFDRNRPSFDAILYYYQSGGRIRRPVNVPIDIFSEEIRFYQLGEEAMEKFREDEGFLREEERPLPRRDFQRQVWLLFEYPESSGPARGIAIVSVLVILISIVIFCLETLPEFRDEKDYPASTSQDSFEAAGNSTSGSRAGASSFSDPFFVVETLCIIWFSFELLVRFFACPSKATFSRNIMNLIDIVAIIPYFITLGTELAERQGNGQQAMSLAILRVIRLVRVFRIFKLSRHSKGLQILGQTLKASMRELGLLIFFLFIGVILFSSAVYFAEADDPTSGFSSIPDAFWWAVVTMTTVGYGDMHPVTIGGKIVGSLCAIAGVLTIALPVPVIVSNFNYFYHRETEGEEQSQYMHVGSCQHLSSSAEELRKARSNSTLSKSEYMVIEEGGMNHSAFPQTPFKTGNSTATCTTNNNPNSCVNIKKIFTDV
A short description of series [2]: Depolarization of human T cells by electrophysiological method. Format: functional, cell-based. Conditions: T-cell.
The target in series [3] is T1, Potassium voltage-gated channel subfamily A member 3. As to the kind of experiment: Antagonist activity at voltage-gated Kv1.3 potassium channel. Format: functional.
In series [4] the test system is B-cell. As to the kind of experiment: Inhibition of LPS-induced B cell proliferation. Format: functional, cell-based.
The subject of series [5] is Helicobacter pylori. Kind of series: Antimicrobial activity against Helicobacter pylori. Format: functional.
Series [6] deals with Leptinotarsa decemlineata. Kind of series: Insecticidal activity against Leptinotarsa decemlineata. Format: functional.
The subject of series [7] is HT-1080. Kind of series: Cytotoxicity against human HT1080 cells. Format: functional, cell-based.
Series [8] has as its system T-cell. As to the kind of experiment: Inhibition of Concanavalin A-induced T cell proliferation. Format: functional, cell-based.
A short description of series [9]: Inhibition of NADH fumarate reductase.
Series [10] concerns Leptinotarsa decemlineata. Kind of series: Insecticidal activity against Leptinotarsa decemlineata at 1000 ppm. Format: functional, organism-based.
Series [11] is described as follows: Toxicity in ip dosed rat. Format: organism-based. The following applies: in vivo.

Values after ≈ are worked out from the molar mass of the structure shown. Active and inactive are the calls of the source. No cut-off for these calls is given here.

In turn, `C=C1CC[C@@H]2[C@](C)(CC[C@H]3OC(C(C)(C)O)=C(O)C[C@]23C)[C@@H]1Cc1c(OC)oc(C)c(C)c1=O` [CANDELALIDE B] displayed an IC50 in series [1] of 1.2 µM.

The compound `C=C1CC[C@H]2[C@](C)(CCC=C(C)C)[C@@H](OC(C)=O)CC[C@]2(C)[C@@H]1Cc1c(OC)oc(C)c(C)c1=O` [NALANTHALIDE] yielded a 50% effective concentration (EC50) in [2] of 0.5 µM. The same compound returned an IC50 in series [3] of 3.9 µM.

In [4], `COc1oc([C@H]2C[C@@]3(CO2)[C@H](c2ccc([N+](=O)[O-])cc2)[C@]2(C)C=C(C)C=C(C)[C@@H]23)c(C)c(=O)c1C` gave an IC50 of 0.8 µM.

`C/C=C(\C)[C@H](O)[C@H](C)/C=C(C)/C=C/C/C(C)=C/Cc1oc(OC)c(C)c(=O)c1C` [ACTINOPYRONE A] gave an MIC in series [5] of 0.1 ng/mL (≈ 0.25 nM).

As to `C=C1CC[C@H]2[C@](C)(CCC=C(C)C)[C@@H](OC(=O)[C@H](O)[C@@H](C)CC)CC[C@]2(C)[C@@H]1Cc1c(OC)oc(C)c(C)c1=O` [VIRIDOXIN B], the LC50 in [6] was 50700 ng/mL (≈ 91100 nM).

In series [7], `COc1oc([C@H]2C/C(=C/C(C)=C\c3ccc([N+](=O)[O-])cc3)CO2)c(C)c(=O)c1C` [ALLOAUREOTHIN] registered an IC50 of 30 µM.

On to `C=C1CC[C@H]2[C@](C)(CCC=C(C)C)[C@@H](OC(=O)[C@H](OC)[C@@H](C)CC)CC[C@]2(C)[C@@H]1Cc1c(OC)oc(C)c(C)c1=O` [VIRIDOXIN A], for which the LC50 in [6] came to 39700 ng/mL (≈ 69600 nM).

Regarding `C/C=C(\C)[C@H](O)[C@H](C)/C=C(C)/C=C/C/C(C)=C/Cc1oc(OC)cc(=O)c1C` [ACTINOPYRONE B], it took 0.1 ng/mL (≈ 0.259 nM) to inhibit growth in [5] (MIC).

Take `COc1oc([C@@H]2C[C@@]3(CO2)[C@H](c2ccc([N+](=O)[O-])cc2)[C@]2(C)C=C(C)C=C(C)[C@@H]23)c(C)c(=O)c1C`: the midpoint of inhibition in series [8], the IC50, lay at 0.2 µM.

In [1], `C=C1CC[C@@H]2[C@](C)(CC[C@H]3OC(C(C)(C)O)=CC[C@]23C)[C@H]1Cc1c(OC)oc(C)c(C)c1=O` [CANDELALIDE C] had an IC50 of 2.5 µM.

In series [1], `C=C1CC[C@@H]2[C@](C)(CC[C@H]3OC=CC[C@]23C)[C@@H]1Cc1c(OC)oc(C)c(C)c1=O` [CANDELALIDE A] showed an IC50 of 3.7 µM.

Turning to `C/C=C(\C)[C@H](O)[C@H](C)/C=C(C)/C=C/C/C(C)=C/Cc1oc(OC)c(CC)c(=O)c1C` [ACTINOPYRONE C], in series [5], the MIC was determined as 0.1 ng/mL (≈ 0.241 nM).

`COc1oc([C@H]2C/C(=C/C(C)=C/C(C)=C/C(C)=C/c3ccc([N+](=O)[O-])cc3)CO2)c(C)c(=O)c1C` [SPECTINABILIN] showed an IC50 in series [9] of 0.015 µM.

As to `C=C1CC[C@@H]2[C@](C)(CC[C@H](O)[C@@]2(C)CCC=C(C)C)[C@@H]1Cc1c(OC)oc(C)c(C)c1=O`, in [10], the result was inactive.

For `C=C1CC[C@@H]2[C@@](C)(CCC(C)(C)O)[C@@H](O)CC[C@@]2(C)[C@H]1Cc1c(OC)oc(C)c(C(=O)OC)c1=O` [COLLECTOTRICHIN A], the LD50 in series [11] worked out at 16 mg/kg.
